Source: US20040063612A1, “Neuroprotective agents” (priority 2002, published 2004)

Experiments:
[1] = system: primary cortical neuron cultures; assay: Neuronal viability after oxidative stress (H2O2), crystal violet assay; type: cell-based, rat; settings: pre-treatment one day prior to 40 mM H2O2
Experimental: Cell viability assays. […] Since the MTT assay measures both metabolic function (mitochondrial-based) and cell viability, a second method, the crystal violet assay, was used to assess cell density. For the crystal violet assay, the cells were rinsed in phosphate buffered saline (PBS) and stained for 10 minutes at room temperature with crystal violet solution (0.05% crystal violet, 2% formalin, 10% methanol). After extensive rinsing in tap water baths, the plates were dried and the dye eluted with 200 μl/well of PBS containing 1% SDS. The absorbance was measured at 595 nm using an automated ELISA reader.
High through-put screening with primary neuronal cell cultures. Primary neuronal cells were cultured in 96-well plates coated with collagen type IV or laminin.
Cerebral cortex tissue harvested from 16-18 day old rat fetuses (Sprague-Dawley) was incubated for 10 minutes in calcium-free and magnesium-free Hanks balanced salt solution (CMF-HBSS), followed by digestion in 0.25% trypsin/CMF-HBSS for 30 minutes at 37° C. […]
The cell viability was measured using the crystal violet assay one day after the oxidative injury. […]
Viability is expressed as percentage change relative to cultures treated only with the oxidant. […] Cell viability was measured using the crystal violet assay 1 day after the oxidative injury. […] Standard deviations calculated for 8 replicate cultures were <10%.

cerebral ischaemia = settings: cited from earlier work

Compound: c1ccc(Nc2ccccc2)cc1 [Diphenylamine, diphenylamine]
- increase in viability (in words) [1]: modest increase in viability
- neuronal rescue (in words) [1]: less pronounced neuronal rescue

Compound: [Mg+2] [Mg, magnesium]
- infarct volume reductions (cerebral ischaemia): 25-61%
